Measurements as given in ChEMBL document CHEMBL3886950, “Furanone compounds as kinase inhibitors” (2016).

Molecular target: Serine/threonine-protein kinase B-raf (Homo sapiens, UniProt P15056, V600E)
Experiment: LanthaScreen Kinase Assay: The BRAFV600E enzymatic assay was performed using a LanthaScreen kinase assay kit purchased from Life Technologies (Grand Island, N.Y.). The assay was conducted according to the procedure provided in the assay kit. […] The final reaction volume for each reaction was 10 ul. The reaction was stopped by addition of 10 ul of TR-FRET dilution buffer kinase supplemented with kinase quench buffer (10 mM final) and Tb-anti-pMAP2K1 (2 nM final). The plate was further incubated at room temperature for another 60 minutes, and the fluorescent signals were read on Victor 5 (Perkin Elmer) with excitation at 340 nm and emission at 495 and 520 nM. The assay signal was determined as a ratio of FRET-specific signal measured with emission filter at 520 nM to that of the signal measured with Tb-specific emission filter at 495 nM. IC50 value was calculated using appropriate programs in GraphPad Prism by plotting the logarithm of the concentration versus percent inhibition.

Sequence of Serine/threonine-protein kinase B-raf (P15056 2-766 V600E limits assumed): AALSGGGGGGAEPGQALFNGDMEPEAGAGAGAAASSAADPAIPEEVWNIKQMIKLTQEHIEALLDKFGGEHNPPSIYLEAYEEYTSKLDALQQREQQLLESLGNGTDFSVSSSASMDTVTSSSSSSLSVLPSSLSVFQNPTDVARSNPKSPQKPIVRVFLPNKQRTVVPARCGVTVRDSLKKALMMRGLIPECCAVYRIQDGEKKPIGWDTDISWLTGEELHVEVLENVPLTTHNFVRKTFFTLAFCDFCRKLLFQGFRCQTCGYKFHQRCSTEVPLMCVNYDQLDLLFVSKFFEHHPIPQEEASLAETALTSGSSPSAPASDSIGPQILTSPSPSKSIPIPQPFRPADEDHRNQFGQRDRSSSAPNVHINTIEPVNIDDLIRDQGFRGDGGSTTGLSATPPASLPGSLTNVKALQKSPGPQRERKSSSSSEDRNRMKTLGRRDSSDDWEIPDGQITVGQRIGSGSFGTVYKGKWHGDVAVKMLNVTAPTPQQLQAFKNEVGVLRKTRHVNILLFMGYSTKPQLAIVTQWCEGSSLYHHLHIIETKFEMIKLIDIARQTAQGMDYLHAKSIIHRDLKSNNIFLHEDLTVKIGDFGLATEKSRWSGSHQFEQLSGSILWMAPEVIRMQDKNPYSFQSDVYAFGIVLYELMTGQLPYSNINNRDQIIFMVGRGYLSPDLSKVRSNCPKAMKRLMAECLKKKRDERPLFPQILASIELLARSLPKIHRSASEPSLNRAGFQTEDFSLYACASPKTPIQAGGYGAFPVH

Compound | IC50 [µM]
Nc1nccc(C2=C(c3cccc(NS(=O)(=O)c4c(F)cccc4F)c3F)C(=O)C3(CCCC3)O2)n1 | 0.029
CC1(C)OC(c2ccnc(N)n2)=C(c2cc(Cl)cc(NS(=O)(=O)c3ccc(F)cc3F)c2F)C1=O | 0.01
CC1(C)OC(c2ccnc(N)n2)=C(c2cc(Cl)cc(NS(=O)(=O)c3c(F)cccc3F)c2F)C1=O | 0.0055
